Calls of active or inactive are those of the source.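 How the source made its calls: active means inhibition zone diameter above 0 mm; inactive means zone diameter of 0 mm or less.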
What follows are molecules tested on Candida albicans ATCC 90028, disc diffusion zone, 24 h (assay: Candida albicans growth inhibition, late-stage follow-up, TPT1 inhibitor project, disc diffusion, zone diameter (AID 434975)). Settings: at 10 mM; stronger effect = higher value.

Which inhibition zone diameter does the source give for `O=c1oc2c(O)c(O)cc3c(=O)oc4c(O)c(O)cc1c4c23` here?
Its inhibition zone diameter is 0 mm (inactive).

For `Cc1ccccc1N1C(=O)/C(=C/c2ccco2)C(=O)NC1=S`, which inhibition zone diameter is on record?
The inhibition zone diameter was 0 mm (inactive).

How did the inhibition zone diameter turn out when `Cc1cc(C)n(Cc2ccc(C(=O)NN=Cc3ccc(-c4ccc([N+](=O)[O-])cc4)o3)o2)n1` was run?
Its inhibition zone diameter is 0 mm (inactive).

`COc1ccc(OC)c(N2C(=O)/C(=C/c3ccco3)C(=O)NC2=S)c1` was tested. Which inhibition zone diameter did it give?
Its inhibition zone diameter is 0 mm (inactive).

With `Cc1ccc(N2C(=O)NC(=O)/C(=C\c3ccc([N+](=O)[O-])o3)C2=O)cc1` as the molecule, how does the inhibition zone diameter read?
Its inhibition zone diameter is 12.6 mm.

How did the inhibition zone diameter turn out when `CC1=C(C#N)C(=O)N(C2CCS(=O)(=O)C2)C(=O)/C1=C\c1ccco1` (stereo not drawn) was run?
Its inhibition zone diameter is 0 mm (inactive).

Which inhibition zone diameter does the source give for `OC(Cn1cncn1)(Cn1cncn1)c1ccc(F)cc1F` here?
Its inhibition zone diameter is 38 mm.

With `NC(=O)c1cc[n+](CC2=C(C(=O)O)N3C(=O)[C@@H](NC(=O)C(c4ccccc4)S(=O)(=O)O)[C@H]3SC2)cc1` (stereo partly drawn) as the molecule, how does the inhibition zone diameter read?
Its inhibition zone diameter is 0 mm (inactive).

From PubChem BioAssay AID434975 (The Scripps Research Institute Molecular Screening Center, 2010)
